Threshold dose data for one molecule are collected here from paper PMC4700456, “Receptor for detection of a Type II sex pheromone in the winter moth Operophtera brumata” (Scientific Reports, 2016).

Each structure is given as a SMILES string.

In this assay the target is T1, ObruOR1 (co-expressed with Obru\Orco) (Operophtera brumata, UniProt A0A140YWR3).
T1 construct: full-length, ObruOR1 430 aa, Obru\Orco 472 aa; pCS2+ vector, cRNAs co-injected in Xenopus laevis oocytes; with Odorant receptor co-receptor
T1 sequence (A0A140YWR3 1-430): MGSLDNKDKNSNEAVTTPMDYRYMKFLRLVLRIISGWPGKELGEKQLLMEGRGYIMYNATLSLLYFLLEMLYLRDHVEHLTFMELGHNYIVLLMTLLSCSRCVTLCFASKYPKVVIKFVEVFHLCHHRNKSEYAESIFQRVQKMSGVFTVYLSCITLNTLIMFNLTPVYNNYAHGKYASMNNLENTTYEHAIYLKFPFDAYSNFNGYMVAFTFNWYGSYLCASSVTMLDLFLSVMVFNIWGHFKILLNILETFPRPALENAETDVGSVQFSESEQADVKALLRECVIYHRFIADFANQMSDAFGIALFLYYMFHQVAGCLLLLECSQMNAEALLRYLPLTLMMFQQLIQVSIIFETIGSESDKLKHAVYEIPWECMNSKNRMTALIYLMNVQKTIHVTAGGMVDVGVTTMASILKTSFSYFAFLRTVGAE
T1 sequence (A0A140YWR4 1-472 partner): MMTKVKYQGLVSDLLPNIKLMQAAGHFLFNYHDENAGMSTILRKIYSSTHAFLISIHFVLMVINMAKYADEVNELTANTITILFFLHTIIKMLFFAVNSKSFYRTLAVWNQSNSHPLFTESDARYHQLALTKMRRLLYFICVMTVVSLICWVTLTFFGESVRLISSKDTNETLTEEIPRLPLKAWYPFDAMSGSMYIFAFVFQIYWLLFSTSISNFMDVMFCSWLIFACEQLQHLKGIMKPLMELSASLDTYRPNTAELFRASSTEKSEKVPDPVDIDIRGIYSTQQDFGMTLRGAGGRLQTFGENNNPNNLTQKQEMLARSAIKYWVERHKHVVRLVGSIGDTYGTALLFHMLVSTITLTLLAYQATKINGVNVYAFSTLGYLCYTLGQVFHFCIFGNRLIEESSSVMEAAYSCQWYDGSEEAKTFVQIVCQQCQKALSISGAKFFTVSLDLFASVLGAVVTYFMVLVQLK
The assay is described as follows: two-electrode voltage clamp, Xenopus oocytes. It counts as cell-based. The note with it: agonist, holding potential -80 mV, Ringer's buffer, dose-response. On the technique in general: Two-electrode voltage clamp holds a large cell at a set potential and records current.

The molecule `C=C/C=C\C/C=C\C/C=C\CCCCCCCCC` [1,3Z,6Z,9Z-19:H, (3Z,6Z,9Z)-1,3,6,9-nonadecatetraene] displayed a threshold dose of 10 nM.
